This is an account of results in patent US11897865B2, “ABHD12 inhibitors and methods of making and using same” (THE SCRIPPS RESEARCH INSTITUTE, priority 2018, dated 2024).

By inhibition is commonly meant how much of the control response was suppressed. As usually defined, the IC50 is the concentration that gives 50% inhibition.

For one experiment, the target named is T1, ABHD12 (Mus musculus, UniProt Q99LR1).
T1 construct: from tissue; host or cells: brain membrane proteome
T1 sequence (Q99LR1 1-398): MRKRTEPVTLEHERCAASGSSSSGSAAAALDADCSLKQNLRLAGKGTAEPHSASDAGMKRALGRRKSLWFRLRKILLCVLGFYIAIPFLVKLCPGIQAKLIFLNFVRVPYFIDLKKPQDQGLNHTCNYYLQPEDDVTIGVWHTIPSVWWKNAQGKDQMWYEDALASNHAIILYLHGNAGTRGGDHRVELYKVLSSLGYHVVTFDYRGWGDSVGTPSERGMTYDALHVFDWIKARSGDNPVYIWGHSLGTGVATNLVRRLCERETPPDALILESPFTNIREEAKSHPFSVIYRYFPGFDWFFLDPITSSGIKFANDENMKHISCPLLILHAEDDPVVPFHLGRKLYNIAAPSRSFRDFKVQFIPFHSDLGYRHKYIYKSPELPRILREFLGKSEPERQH
Kind of experiment: Gel-based competitive ABPP, JJH350 probe vs brain membrane proteome. Particulars: 10 μM compound, read-out: % Inhibition @ 10 μM (ABPP gel_JJH350 probe vs brain mem). Type of experiment: biochemical. The protocol: Gel-Based Competitive ABPP for In Vitro Inhibitor Treatment of Proteomes:
Gel-based ABPP assays were performed as previously reported (Bachovchin, D. A. et al. Superfamily-wide portrait of serine hydrolase inhibition achieved by library-versus-library screening. Proc. Natl. Acad. Sci. U. S. A. 2010, 107, 20941-20946). Cell or tissue proteomes (50 μL, 1 mg/mL) were treated with either FP-Rh (1 μM final concentration) or JJH350 (2 μM final concentration) for 45 min at 37° C. For FP-Rh labeled samples, the reactions were quenched by adding 20 μL of 4× SDS-PAGE loading buffer. The 30 μL of the quenched samples were loaded on gel for analysis. For (S)-1,3-dioxo-7-(4-phenoxybenzoyl)hexahydroimidazo[1,5-a]pyrazin-2(3H)-yl 4-(4-(prop-2-yn-1-yloxy)phenyl)piperazine-1-carboxylate (JJH350)-labeled samples, copper-catalyzed azide-alkyne cycloaddition (CuAAC) was used for visualizing the labeled proteins following the reported protocol. Briefly, rhodamine-PEG3-N3 (1 μL/reaction, 1.25 mM in DMSO), CuSO4 (1 μL/reaction, 50 mM in H2O), TBTA (3 μL/reaction, 1.7 mM in DMSO/t-BuOH [1:4, v/v]) and tris(2-carboxyethyi)phosphine (TCEP) (1 μL/reaction, 50 mM in H2O, freshly prepared) were premixed. 6 μL of this click reagent mixture was immediately added to each JJH350-labeled samples (50 μL, 1 mg/mL) and incubated for 1 h at room temperature. The reactions were quenched by adding 20 μL of 4× SDS-PAGE loading buffer. The 40 μL of the quenched samples were loaded on a gel for analysis.
After separation by SDS-PAGE (10% acrylamide), samples were visualized by in-gel fluorescence scanning using the ChemiDoc MP system (Bio-Rad). Band intensities were quantified using the Image Lab (5.2.1) software (Bio-Rad).
In the case of `FC(F)(F)Oc1ccccc1Oc1ccnc(N2CCC(NC(=S)Nc3cccnc3)CC2)c1` [Example 50, 1-(Pyridin-3-yl)-3-(1-(4-(2-(trifluoromethoxy)phenoxy)pyridin-2-yl)piperidin-4-yl)thiourea], the inhibition at 10 µM was not below 75%. With `S=C(Nc1cccnc1)NC1CCN(c2cc(OC3CCCCC3)ccn2)CC1` [Example 30, 1-(1-(4-(Cyclohexyloxy)pyridin-2-yl)piperidin-4-yl)-3-(pyridin-3-yl)thiourea], the inhibition at 10 µM was not below 75%. In the case of `FC(F)(F)c1ccc(N2CCC(NC(=S)Nc3cccnc3)CC2)nn1` [Example 79, 1-(Pyridin-3-yl)-3-(1-(6-(trifluoromethyl)pyridazin-3-yl)piperidin-4-yl)thiourea], the inhibition at 10 µM was 0 to 25%.

Take `FC(F)(F)c1cnc(NCCCCCCNC(=S)Nc2cccnc2)c(Cl)c1` [Example 84, 1-(6-((3-Chloro-5-(trifluoromethyl)pyridin-2-yl)amino)hexyl)-3-(pyridin-3-yl)thiourea]: the inhibition at 10 µM fell in the range of 50 to 75%. Regarding `FC(F)(F)c1cc(Cl)cnc1N1CCC(NC(=S)Nc2cccnc2)CC1` [Example 18, 1-(1-(5-Chloro-3-(trifluoromethyl)pyridin-2-yl)piperidin-4-yl)-3-(pyridin-3-yl)thiourea], the inhibition at 10 µM was not below 75%. Turning to `CN(C(=S)Nc1cccnc1)C1CCN(c2ncc(C(F)(F)F)cc2Cl)CC1` [Example 82, 1-(1-(3-Chloro-5-(trifluoromethyl)pyridin-2-yl)piperidin-4-yl)-1-methyl-3-(pyridin-3-yl)thiourea], the inhibition at 10 µM fell in the range of 50 to 75%. With `FC(F)(F)c1ccccc1Oc1ccnc(N2CCC(NC(=S)Nc3cccnc3)CC2)c1` [Example 53, 1-(Pyridin-3-yl)-3-(1-(4-(2-(trifluoromethyl)phenoxy)pyridin-2-yl)piperidin-4-yl)thiourea], the inhibition at 10 µM is not below 75%. On the same count and under the same terms, next, `FC(F)COc1ccnc(N2CCC(NC(=S)Nc3cccnc3)CC2)c1` [Example 32, 1-(1-(4-(2,2-Difluoroethoxy)pyridin-2-yl)piperidin-4-yl)-3-(pyridin-3-yl)thiourea]: 50 to 75%. On the same count and under the same terms, next, `FC(F)(F)CCCOc1ccnc(N2CCC(NC(=S)Nc3cccnc3)CC2)c1` [Example 34, 1-(Pyridin-3-yl)-3-(1-(4-(4,4,4-trifluorobutoxy)pyridin-2-yl)piperidin-4-yl)thiourea]: not below 75%; `FC(F)(F)c1cnc(N2CCC(NC(=S)Nc3ccccc3)CC2)c(Cl)c1` [Example 9, 1-(1-(3-Chloro-5-(trifluoromethyl)pyridin-2-yl)piperidin-4-yl)-3-phenylthiourea]: not below 75%.

Regarding `O=C(Nc1cccnc1)NC1CCN(c2ncc(C(F)(F)F)cc2Cl)CC1` [Example 77, 1-(1-(3-Chloro-5-(trifluoromethyl)pyridin-2-yl)piperidin-4-yl)-3-(pyridin-3-yl)urea], the inhibition at 10 µM is 25 to 50%. With `FC(F)(F)c1cnc(N2[C@@H]3CC[C@H]2CC(NC(=S)Nc2cccnc2)C3)c(Cl)c1` (stereo partly drawn) [Example 85, 1-((1R,5S)-8-(3-Chloro-5-(trifluoromethyl)pyridin-2-yl)-8-azabicyclo[3.2.1]octan-3-yl)-3-(pyridin-3-yl)thiourea], the inhibition at 10 µM is 50 to 75%.

Still in this experiment, the particulars now being: at 2 uM compound.
For the compound `C#Cc1ccc(N2CCC(NC(=S)Nc3cccnc3)CC2)nc1` [Example 10, 1-(1-(5-Ethynylpyridin-2-yl)piperidin-4-yl)-3-(pyridin-3-yl)thiourea], the “% Inhibition (ABPP gel_JJH350 probe vs brain mem), at 2 uM” value is “C (at 2 uM) (% inhibition is greater than or equal to 25% and less than 50%)”.

Still in this experiment, the particulars now being: read-out: IC50 (ABPP gel_JJH350 probe vs brain mem).
As for `S=C(Nc1cccnc1)NC1CCN(c2cc(OC3CCCCC3)ccn2)CC1` [Example 30, 1-(1-(4-(Cyclohexyloxy)pyridin-2-yl)piperidin-4-yl)-3-(pyridin-3-yl)thiourea], the IC50 is 1000 to 25000 nM. As to `Cc1cc(OC(F)(F)F)ccc1Oc1ccnc(N2CCC(NC(=S)Nc3cccnc3)CC2)c1Cl` [Example 73, 1-(1-(3-Chloro-4-(2-methyl-4-(trifluoromethoxy)phenoxy)pyridin-2-yl)piperidin-4-yl)-3-(pyridin-3-yl)thiourea], the IC50 was not above 100 nM.
